Reference: PubChem BioAssay (NCI)
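96-well plates; 48 h exposure; 5 concentrations. Endpoints by linear interpolation between flanking doses. Not reached: highest tested concentration assigned. GI50: concentration for 50% inhibition of growth. TGI marks complete inhibition of growth.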

Key:
Experiment in all cases: NCI-60 cell line screen, 48 h
[1] = test system: 786-0 renal
[2] = test system: HL-60(TB) leukemia
[3] = test system: M14 melanoma
[4] = test system: NCI/ADR-RES ovarian
[5] = test system: OVCAR-8 ovarian
[6] = test system: PC-3 prostate
[7] = test system: SK-OV-3 ovarian
[8] = test system: TK-10 renal
[9] = test system: U251 CNS
[10] = test system: UO-31 renal

Structure (SMILES) | GI50 [1] | TGI [1] | GI50 [2] | TGI [2] | GI50 [3] | TGI [3] | GI50 [4] | TGI [4] | GI50 [5] | TGI [5] | GI50 [6] | TGI [6] | GI50 [7] | TGI [7] | GI50 [8] | TGI [8] | GI50 [9] | TGI [9] | GI50 [10] | TGI [10]
CN(C)CCCOc1ccc(NC2=C(Cl)C(=O)C(Nc3ccc(OCCCN(C)C)cc3)=C(Cl)C2=O)cc1 | 1.59 µM | 2.98 µM | 0.732 µM | 2.02 µM | 1.45 µM | 2.9 µM | 1.68 µM | 4.72 µM | 0.446 µM | 1.04 µM | 1.23 µM | 2.76 µM | 1.82 µM | 3.34 µM | 1.99 µM | 3.41 µM | 1.53 µM | 2.94 µM | 1.1 µM | 2.44 µM
OCC1OC(OC2(CO)OC(CO)C(O)C2O)C(O)C(O)C1O (stereo not given) | > 100 µM | > 100 µM | > 100 µM | > 100 µM | > 100 µM | > 100 µM | > 100 µM | > 100 µM | > 100 µM | > 100 µM | > 100 µM | > 100 µM | > 100 µM | > 100 µM | > 100 µM | > 100 µM | > 100 µM | > 100 µM | > 100 µM | > 100 µM
Nc1ncnc2c1c(-c1ccc(Oc3ccccc3)cc1)nn2CC1SSCC1O (stereo not given) | 4.86 µM | 11.2 µM | 1.49 µM | 7.99 µM | 0.0609 µM | 0.121 µM | 6.61 µM | 17.6 µM | 7.51 µM | 23.3 µM | 6.23 µM | 14.9 µM | 1.35 µM | 7.05 µM | 1.91 µM | 6.34 µM | 4.31 µM | 9.66 µM | 1.22 µM | 5.88 µM
C/C(=C/CCC(C)[C@@H]1CC[C@]2(C)C3=C(CC[C@@]12C)[C@@]1(C)CCC(=O)C(C)(C)[C@@H]1CC3)C(=O)O (stereo not given in full) | 1.18 µM | 2.57 µM | 0.855 µM | 2.32 µM | 1.1 µM | 2.64 µM | 1.54 µM | 3.26 µM | 1.42 µM | 3.2 µM | 1.12 µM | 2.51 µM | 1.78 µM | 3.18 µM | 1.45 µM | 2.83 µM | 0.817 µM | 2.29 µM | 1.08 µM | 2.44 µM
CC(=O)Nc1cccc(C#Cc2cncnc2Nc2ccc(OCc3cccc(F)c3)c(Cl)c2)c1 | 7.66 µM | > 25 µM | 7.59 µM | > 25 µM | 10.8 µM | > 25 µM | 6.86 µM | > 25 µM | 6.35 µM | 24.9 µM | 8.49 µM | > 25 µM | 6.14 µM | > 25 µM | 1.6 µM | 16.3 µM | 11.8 µM | > 25 µM | 3.55 µM | > 25 µM
Nc1nc(-c2ccccc2)c(CC(=O)O)s1 | – | > 100 µM | – | 83.1 µM | – | > 100 µM | – | > 100 µM | – | > 100 µM | – | > 100 µM | – | > 100 µM | – | > 100 µM | – | > 100 µM | – | > 100 µM
